Measurements reported in paper PMC5035018, “Arachidonic Acid Metabolite 19(S)-HETE Induces Vasorelaxation and Platelet Inhibition by Activating Prostacyclin (IP) Receptor” (PLoS ONE, 2016).

Target: T1, prostacyclin (IP) receptor (Homo sapiens, UniProt P43119)
T1 construct: gene PTGIR; human IP receptor cDNA expressed in COS-1 cells
Test: [3H]-iloprost competition radioligand binding on transfected COS-1 cells (also cAMP EC50 […])
Assay type: cell-based

T1 sequence (P43119 1-383): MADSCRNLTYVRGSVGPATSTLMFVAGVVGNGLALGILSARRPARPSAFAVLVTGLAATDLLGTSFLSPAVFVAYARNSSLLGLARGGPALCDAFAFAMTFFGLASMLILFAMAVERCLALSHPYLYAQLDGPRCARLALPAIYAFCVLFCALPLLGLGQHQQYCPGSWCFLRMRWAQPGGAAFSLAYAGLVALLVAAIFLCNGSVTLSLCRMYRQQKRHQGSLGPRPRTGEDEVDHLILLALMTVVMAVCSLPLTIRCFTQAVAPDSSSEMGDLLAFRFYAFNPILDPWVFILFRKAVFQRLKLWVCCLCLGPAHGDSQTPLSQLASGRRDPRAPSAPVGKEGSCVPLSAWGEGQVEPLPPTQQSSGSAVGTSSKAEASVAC

Ki: 660 nM
Compound: C[C@H](O)CCC/C=C\C/C=C\C/C=C\C/C=C\CCCC(=O)O [19(S)-HETE, 19(S)-hydroxy-5Z,8Z,11Z,14Z-eicosatetraenoic acid]
